In US10065990B2, “Cyclic peptide compound, and preparation method, pharmaceutical composition and use thereof” (HANGZHOU GUANYU BIO-MEDICAL CO., LTD, priority 2013, dated 2018):
Read-outs that look alike come from different tables or passages of the source.

Legend:
[1] = test system: KBM5-T315I (human chronic myelogenous leukemia); assay: MTT cancer cell growth inhibition; type: cell-based; conditions: Homo sapiens, 72 h, MTT, 72 hours incubation, KBM5-T315I cells; read-out: GI50 KBM5-T315I
Description: (§1) MTT assay principle is yellow MTT can penetrate membrane into the cell, succinic dehydrogenase of the mitochondria in living cells can make exogenous MTT reduction of insoluble in water of blue-violet acicular formazan for crystallization and deposition in the cell, crystallization can be dissolved dimethyl sulfoxide (DMSO) solution, detected its absorbance at 490 nm/570 nm wavelength by enzyme-linked immunosorbent assay, which can reflect the number of cells.
(§2) Using DMEM+10% FBS culture medium or using 1640+10% FBS culture, respectively.
(§3) a) Cells were seeded in 96-well plates with the inoculation of 1500/well, 190 μl/hole, 37° C., 5% of CO2 incubator overnight;
(§4) b) The next day each well was added 10 μl of different drugs. The final concentration of drug was 10^−5˜10^−10M, three parallel holes; 37° C., 5% CO2 culture incubator for 72 hours incubation;
(§5) c) Per well was added 20 μl 5 mg/ml of MTT, 37° C., 5% CO2 culture incubator for 4 hours incubation;
(§6) d) The supernatant was discarded. Each well was added 100 μl of DMSO and oscillation;
(§7) e) 570 nm readings. Calculate cell viability. GI50 calculation based on the results.

[2] = test system: SGC-7901 (human gastric cancer cells); assay: MTT cancer cell growth inhibition; type: cell-based; conditions: Homo sapiens, SGC-7901, 72 h, MTT, 72 hours incubation, SGC-7901 cells; read-out: GI50 SGC-7901
Description: as §1, §2, §3, §4, §5, §6, §7

[3] = test system: Huh-7 (human hepatoma cells); assay: MTT cancer cell growth inhibition; type: cell-based; conditions: Homo sapiens, Huh-7, 72 h, MTT, 72 hours incubation, Huh-7 cells; read-out: GI50 Huh-7
Description: as §1, §2, §3, §4, §5, §6, §7

[4] = test system: H1975 (non-small cell lung adenocarcinoma); assay: MTT cancer cell growth inhibition; type: cell-based; conditions: Homo sapiens, NCI-H1975, 72 h, MTT, 72 hours incubation, H1975 cells; read-out: GI50 H1975
Description: as §1, §2, §3, §4, §5, §6, §7

[5] = test system: KBM-5 (human chronic myelogenous leukemia); assay: MTT cancer cell growth inhibition; type: cell-based; conditions: Homo sapiens, KBM5, 72 h, MTT, 72 hours incubation, KBM-5 cells; read-out: GI50 KBM-5
Description: as §1, §2, §3, §4, §5, §6, §7

[6] = test system: HCC827 (human non-small cell lung cancer cells); assay: MTT cancer cell growth inhibition; type: cell-based; conditions: Homo sapiens, HCC827, 72 h, MTT, 72 hours incubation, HCC827 cells; read-out: GI50 HCC827
Description: as §1, §2, §3, §4, §5, §6, §7

[7] = test system: MDA-MB-231 (breast cancer cells); assay: MTT cancer cell growth inhibition; type: cell-based; conditions: Homo sapiens, MDA-MB-231, 72 h, read-out: GI50 MDA-MB-231, MTT, 72 hours incubation, MDA-MB-231 cells
Description: as §1, §2, §3, §4, §5, §6, §7

[8] = test system: Hela (human cervical cancer cells); assay: MTT cancer cell growth inhibition; type: cell-based; conditions: MTT, 72 hours incubation, read-out: GI50 Hela
Description: as §1, §2, §3, §4, §5, §6, §7

[9] = test system: PANC-1 (Pac-1, human pancreatic cancer cells); assay: MTT cancer cell growth inhibition; type: cell-based; conditions: Homo sapiens, PANC-1, 72 h, MTT, 72 hours incubation, read-out: GI50 PAN
Description: as §1, §2, §3, §4, §5, §6, §7

[10] = test system: U937 (human leukemia cells); assay: MTT cancer cell growth inhibition; type: cell-based; conditions: MTT, 72 hours incubation, read-out: GI50 U93
Description: as §1, §2, §3, §4, §5, §6, §7

[11] = test system: N-87 (human gastric cancer cells); assay: MTT cancer cell growth inhibition; type: cell-based; conditions: Homo sapiens, 72 h, MTT, 72 hours incubation, N-87 cells; read-out: GI50 N-87
Description: as §1, §2, §3, §4, §5, §6, §7

[12] = test system: Bel-7402 (human hepatoma cells); assay: MTT cancer cell growth inhibition; type: cell-based; conditions: MTT, 72 hours incubation, Bel-7402 cells, read-out: GI50 Bel-7402
Description: as §1, §2, §3, §4, §5, §6, §7

[13] = test system: K562 (human leukemia cells); assay: MTT cancer cell growth inhibition; type: cell-based; conditions: Homo sapiens, K562, 72 h, MTT, 72 hours incubation, K562 cells; read-out: GI50 K562
Description: as §1, §2, §3, §4, §5, §6, §7

[14] = test system: HT1080 (human fibrosarcoma cells); assay: MTT cancer cell growth inhibition; type: cell-based; conditions: MTT, 72 hours incubation, read-out: GI50 HT1
Description: as §1, §2, §3, §4, §5, §6, §7

[15] = test system: A549 (human lung cancer cells); assay: MTT cancer cell growth inhibition; type: cell-based; conditions: Homo sapiens, A549, 72 h, MTT, 72 hours incubation, read-out: GI50 A54
Description: as §1, §2, §3, §4, §5, §6, §7

[16] = test system: MOLT-4 (human acute lymphoblastic leukemia cells); assay: MTT cancer cell growth inhibition; type: cell-based; conditions: Homo sapiens, MOLT-4, 72 h, MTT, 72 hours incubation, read-out: GI50 Mol
Description: as §1, §2, §3, §4, §5, §6, §7

[17] = test system: MCF-7 (human breast cancer cells); assay: MTT cancer cell growth inhibition; type: cell-based; conditions: 72 hours incubation, read-out: GI50 MCF
Description: as §1, §2, §3, §4, §5, §6, §7

[18] = test system: lncap (prostate cancer cells); assay: MTT cancer cell growth inhibition; type: cell-based; conditions: Homo sapiens, LNCaP, 72 h, MTT, 72 hours incubation, read-out: GI50 lnca
Description: as §1, §2, §3, §4, §5, §6, §7

[19] = test system: DU145 (human prostate cancer cells); assay: MTT cancer cell growth inhibition; type: cell-based; conditions: Homo sapiens, DU-145, 72 h, MTT, 72 hours incubation, read-out: GI50 Du1
Description: as §1, §2, §3, §4, §5, §6, §7

[20] = test system: BGC-823 (human gastric cancer cells); assay: MTT cancer cell growth inhibition; type: cell-based; conditions: Homo sapiens, BGC-823, 72 h, MTT, 72 hours incubation, read-out: GI50 BG
Description: as §1, §2, §3, §4, §5, §6, §7

[21] = target: T1, HDAC7 (Homo sapiens, UniProt Q8WUI4); assay: HDAC biochemical activity measurement (fluorescent substrate deacetylation);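 also: fluorogenic deacetylation assay using acetyl-lysine substrate at 20 µM, enzyme and compound incubated 30 min at 37 °C, then developer added, fluorescence read at 360/460 nm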; conditions: HDAC7; 37° C. 30 minutes
T1 sequence (Q8WUI4 1-952): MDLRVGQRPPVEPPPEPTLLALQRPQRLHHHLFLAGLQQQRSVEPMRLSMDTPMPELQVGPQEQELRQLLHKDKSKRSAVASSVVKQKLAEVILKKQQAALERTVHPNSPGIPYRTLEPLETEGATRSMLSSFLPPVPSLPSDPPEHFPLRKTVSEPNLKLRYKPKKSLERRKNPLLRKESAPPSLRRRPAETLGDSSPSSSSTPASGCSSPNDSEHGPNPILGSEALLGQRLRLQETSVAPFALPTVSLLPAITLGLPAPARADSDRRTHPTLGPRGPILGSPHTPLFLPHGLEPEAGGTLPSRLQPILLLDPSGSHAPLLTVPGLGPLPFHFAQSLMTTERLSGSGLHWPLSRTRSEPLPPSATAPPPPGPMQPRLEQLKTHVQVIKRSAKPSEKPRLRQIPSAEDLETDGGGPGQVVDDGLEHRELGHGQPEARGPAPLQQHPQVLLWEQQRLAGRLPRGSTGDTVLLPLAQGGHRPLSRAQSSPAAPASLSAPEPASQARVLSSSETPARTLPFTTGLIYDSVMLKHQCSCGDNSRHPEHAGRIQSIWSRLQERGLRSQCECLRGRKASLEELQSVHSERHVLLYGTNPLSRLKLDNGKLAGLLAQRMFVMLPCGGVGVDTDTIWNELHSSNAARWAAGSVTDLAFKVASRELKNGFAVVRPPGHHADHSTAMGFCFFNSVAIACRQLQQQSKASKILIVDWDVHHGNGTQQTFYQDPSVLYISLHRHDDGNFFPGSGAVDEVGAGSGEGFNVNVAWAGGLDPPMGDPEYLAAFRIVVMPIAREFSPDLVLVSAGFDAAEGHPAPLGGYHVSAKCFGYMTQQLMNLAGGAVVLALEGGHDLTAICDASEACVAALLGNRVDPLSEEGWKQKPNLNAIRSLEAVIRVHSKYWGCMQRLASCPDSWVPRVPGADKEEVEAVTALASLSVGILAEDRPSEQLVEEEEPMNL

[22] = Homo sapiens, HeLa, 72 h, Hela cells
[23] = Homo sapiens, U-937, 72 h, U937 cells
[24] = Homo sapiens, HT-1080, 72 h, HT1080 cells
[25] = Homo sapiens, MCF7, 72 h, MCF-7 cells

Row | GI50 [1] | GI50 [2] | GI50 [3] | GI50 [4] | GI50 [5] | GI50 [6] | GI50 [7] | GI50 ([9]; PANC-1 cells) | GI50 [11] | GI50 [13] | GI50 ([15]; A549 cells) | GI50 ([16]; MOLT-4 cells) | GI50 ([18]; lncap cells) | GI50 ([19]; DU145 cells) | GI50 ([20]; BGC-823 cells) | IC50 HDAC7 [21] | GI50 [8, 22] | GI50 [10, 23] | GI50 ([12]; Homo sapiens, Bel-7402, 72 h) | GI50 [14, 24] | SMILES | further results
1 | 65 nM | 48 nM | 47 nM | 41 nM | 51 nM | 46 nM | 49 nM | 50 nM | 37 nM | 25 nM | 70 nM | 60 nM | 60 nM | 30 nM | 60 nM | no activity |  |  |  |  | C/C=C1\NC(=O)c2nc(ccc2SC)CNC(=O)C[C@@H](/C=C/CCSC(C)=O)OC(=O)[C@H](C)NC1=O [Compound 183] | GI50 ([8]; Hela cells): 110 nM; GI50 ([10]; U937 cells): 20 nM; GI50 [12]: 25 nM; GI50 ([14]; HT1080 cells): 50 nM; GI50 ([17]; MCF-7 cells): 40 nM
2 | 41 nM | 71 nM | 35 nM | 39 nM | 31 nM | 23 nM | 35 nM | 90 nM | 23 nM | 83 nM | 60 nM | 30 nM | 100 nM | 50 nM | 70 nM | no activity | 60 nM | 80 nM | 35 nM | 30 nM | C/C=C1\NC(=O)c2ccc(SC)c(n2)CNC(=O)C[C@@H](/C=C/CCSC(=O)CCCCCCC)OC(=O)[C@H](C)NC1=O [Compound 182] | GI50 [17, 25]: 30 nM
3 | 35 nM | 51 nM | 36 nM | 35 nM | 9 nM | 41 nM | 58 nM |  | 31 nM | 46 nM |  |  |  |  |  | no activity |  |  | 22 nM |  | CC(C)=C1NC(=O)c2nc(ccc2F)CNC(=O)C[C@@H](/C=C/CCS)OC(=O)[C@H](C(C)C)NC1=O [Compound 136] | GI50 ([8]; Homo sapiens, HeLa, 72 h): 80 nM; GI50 [9]: 80 nM; GI50 ([10]; Homo sapiens, U-937, 72 h): 30 nM; GI50 ([14]; Homo sapiens, HT-1080, 72 h): 40 nM; GI50 [15]: 40 nM; GI50 [16]: 20 nM; GI50 ([17]; Homo sapiens, MCF7, 72 h): 50 nM; GI50 [18]: 30 nM; GI50 [19]: 10 nM; GI50 [20]: 70 nM
4 | 21 nM | 43 nM | 16 nM | 63 nM | 36 nM | 89 nM | 39 nM | 50 nM | 28 nM | 39 nM | 30 nM | 30 nM | 30 nM | 100 nM | 40 nM | no activity | 70 nM | 40 nM | 52 nM | 20 nM | C/C=C1\NC(=O)c2nc(ccc2SC)CNC(=O)C[C@@H](/C=C/CCSC(C)=O)OC(=O)[C@H](Cc2ccccc2)NC1=O [Compound 186] | GI50 [17, 25]: 50 nM
5 | 23 nM | 72 nM | 29 nM | 35 nM | 36 nM | 37 nM | 26 nM | 20 nM | 36 nM | 23 nM | 20 nM | 20 nM | 50 nM | 70 nM | 30 nM | no activity | 70 nM | 20 nM | 83 nM | 90 nM | C/C=C1\NC(=O)c2cc(SC)cc(n2)CNC(=O)C[C@@H](/C=C/CCSC(=O)CCCC)OC(=O)[C@H](C(C)C)NC1=O [Compound 157] | GI50 [17, 25]: 20 nM
